{"source": "patent US20250332249A1", "about": "“CYTOM[…] CELL EPITOPES AND USES THEREOF” (LA JOLLA INSTITUTE FOR IMMUNOLOGY, priority 2021, published 2025)", "system": "PBMCs from HCMV seropositive subjects", "experiment": "ex vivo IFN-γ Fluorospot assay", "type": "cell-based, human", "details": "19 HCMV seropositive subjects, individual peptide 10 ug/ml, 20 hr; for No. of subjects responding: IFN-γ; for Magnitude of response: IFN-γ spots (FIG. 1: SFC/10^6 PBMC; no unit in table)", "how_it_was_run": "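PBMC (200,000/well, triplicate) from HCMV-seropositive donors were stimulated for 20 h at 37 °C with 15-mer peptide pools (2 ug/ml) or single peptides (10 ug/ml). IFN-γ spots were counted by Fluorospot. Positivity required ≥20 SFC/10^6 PBMC over DMSO background, stimulation index >2 and p<0.05.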", "note": "Where no end group is shown, it is not given here.", "data": [{"substance": "217 (VFQKTLSMLQGLYLR) [compound 217]", "values": [{"measurement": "No. of subjects responding", "result": 2}, {"measurement": "Magnitude of response", "result": 327}]}, {"substance": "89 (LSYMKYHHLHGLPVN) [compound 89]", "values": [{"measurement": "No. of subjects responding", "result": 3}, {"measurement": "Magnitude of response", "result": 879}]}, {"substance": "61 (ASKIKMLETRVTLAL) [compound 61]", "values": [{"measurement": "No. of subjects responding", "result": 1}, {"measurement": "Magnitude of response", "result": 140}]}, {"substance": "198 (LFYRAVALGTLSALV) [compound 198]", "values": [{"measurement": "No. of subjects responding", "result": 3}, {"measurement": "Magnitude of response", "result": 2633}]}, {"substance": "161 (CRVDADLGLLYAVCL) [compound 161]", "values": [{"measurement": "No. of subjects responding", "result": 1}, {"measurement": "Magnitude of response", "result": 673}]}, {"substance": "132 (AREFLLSHDAALFRA; ends and bridges not checked) [compound 132]", "values": [{"measurement": "No. of subjects responding", "result": 1}, {"measurement": "Magnitude of response", "result": 23}]}, {"substance": "159 (SCTHPYVISLVTPLT) [compound 159]", "values": [{"measurement": "No. of subjects responding", "result": 1}, {"measurement": "Magnitude of response", "result": 80}]}, {"substance": "98 (IKMWFLLGAPMIAVL) [compound 98]", "values": [{"measurement": "No. of subjects responding", "result": 3}, {"measurement": "Magnitude of response", "result": 2867}]}, {"substance": "223 (TDCWPFEVAPAARLA) [compound 223]", "values": [{"measurement": "No. of subjects responding", "result": 2}, {"measurement": "Magnitude of response", "result": 1637}]}, {"substance": "16 (HENGIYYGTRSMRKL) [compound 16]", "values": [{"measurement": "No. of subjects responding", "result": 1}, {"measurement": "Magnitude of response", "result": 827}]}, {"substance": "165 (LVKQIKVRVDMVRHR) [compound 165]", "values": [{"measurement": "No. of subjects responding", "result": 3}, {"measurement": "Magnitude of response", "result": 580}]}]}
